According to patent US7074789B2, “Kinase inhibitors” (Amgen Inc., priority 1999, dated 2006):

What was measured:
Type in all cases: biochemical
[1] = biological target: T1, ErbB4 (Homo sapiens, UniProt Q15303); test: Kinase inhibition assay (33P transfer), ErbB4; details: read-out: ErbB4-1
T1 construct: Kinases are expressed as either kinase domains or full length constructs; made in house

[2] = biological target: T2, c-Met (Homo sapiens, UniProt P08581); test: Kinase inhibition assay (33P transfer), c-Met; details: Table 2, kinase inhibition class; read-out: Met-1
T2 construct: Kinases are expressed as either kinase domains or full length constructs; made in house
How it was run: (§1)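 Radiometric format: recombinant tagged kinase (catalytic domain or whole protein, sometimes combined with regulatory polypeptides) phosphorylates immobilised poly(Glu,Tyr) 4:1 or poly(Arg,Ser) 3:1 using [33P]ATP. Wells are washed in 0.5% phosphoric acid, then counted. IC50 is taken where substrate labelling falls by half.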

[3] = biological target: T3, Itk (Homo sapiens, UniProt Q08881); test: Kinase inhibition assay (33P transfer), Itk; details: read-out: Itk-1
T3 construct: Kinases are expressed as either kinase domains or full length constructs; made in house
T3 sequence (Q08881 1-620): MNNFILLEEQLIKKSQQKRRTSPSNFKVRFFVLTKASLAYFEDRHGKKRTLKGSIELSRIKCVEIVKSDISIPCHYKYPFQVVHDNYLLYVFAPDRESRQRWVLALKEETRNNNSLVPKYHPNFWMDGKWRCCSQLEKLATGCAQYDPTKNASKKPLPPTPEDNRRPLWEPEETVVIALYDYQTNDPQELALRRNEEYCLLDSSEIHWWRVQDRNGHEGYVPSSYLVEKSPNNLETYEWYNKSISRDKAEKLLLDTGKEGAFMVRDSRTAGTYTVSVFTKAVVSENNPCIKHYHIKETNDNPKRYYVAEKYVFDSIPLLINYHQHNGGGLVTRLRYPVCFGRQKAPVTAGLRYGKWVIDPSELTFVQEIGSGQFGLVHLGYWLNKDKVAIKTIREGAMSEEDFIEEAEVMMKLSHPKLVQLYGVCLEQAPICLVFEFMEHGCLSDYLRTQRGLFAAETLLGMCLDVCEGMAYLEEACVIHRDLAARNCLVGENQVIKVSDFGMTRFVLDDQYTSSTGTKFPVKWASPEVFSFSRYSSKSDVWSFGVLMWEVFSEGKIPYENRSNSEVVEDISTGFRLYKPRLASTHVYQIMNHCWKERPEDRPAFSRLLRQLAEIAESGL
How it was run: as §1

[4] = biological target: T4, Lyn (Homo sapiens, UniProt P07948); test: Kinase inhibition assay (33P transfer), Lyn; details: Table 6, Lyn-1 kinase inhibition class
T4 construct: Kinases are expressed as either kinase domains or full length constructs; made in house
T4 sequence (P07948 whole entry, species assumed, the tested form may be a part): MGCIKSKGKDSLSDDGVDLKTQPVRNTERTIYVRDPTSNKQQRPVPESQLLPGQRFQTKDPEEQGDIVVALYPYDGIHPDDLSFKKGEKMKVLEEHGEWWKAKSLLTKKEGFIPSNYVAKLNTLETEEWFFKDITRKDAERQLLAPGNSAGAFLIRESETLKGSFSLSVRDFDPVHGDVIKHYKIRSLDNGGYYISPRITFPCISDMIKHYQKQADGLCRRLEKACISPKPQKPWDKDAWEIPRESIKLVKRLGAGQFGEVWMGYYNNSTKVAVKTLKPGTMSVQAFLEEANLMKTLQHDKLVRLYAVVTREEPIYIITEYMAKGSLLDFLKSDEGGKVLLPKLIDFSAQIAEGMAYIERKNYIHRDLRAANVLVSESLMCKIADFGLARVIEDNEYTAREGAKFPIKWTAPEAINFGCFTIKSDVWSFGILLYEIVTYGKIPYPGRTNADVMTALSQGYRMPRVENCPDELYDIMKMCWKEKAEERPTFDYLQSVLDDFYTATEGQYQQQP
How it was run: as §1

[5] = biological target: T5, Src (Homo sapiens, UniProt P12931); test: Kinase inhibition assay (33P transfer), Src; details: Table 6, Src-1 kinase inhibition class
T5 construct: Kinases are expressed as either kinase domains or full length constructs; made in house
How it was run: as §1

[6] = biological target: T6, IGFR-1 (Homo sapiens, UniProt P08069); test: Kinase inhibition assay, IGFR-1 (Table 2); details: Table 2, kinase inhibition class
T6 construct: Kinases are expressed as either kinase domains or full length constructs; made in house

[7] = biological target: T7, Ret-1 (Homo sapiens, UniProt P07949); test: Kinase inhibition assay (33P transfer), Ret; details: Table 6, Ret-1 kinase inhibition class
T7 construct: Kinases are expressed as either kinase domains or full length constructs; made in house

[8] = biological target: T8, Fyn (Homo sapiens, UniProt P06241); test: Kinase inhibition assay (33P transfer), Fyn; details: read-out: Fyn-1
T8 construct: Kinases are expressed as either kinase domains or full length constructs; made in house
How it was run: as §1

[9] = biological target: T9, PDGFRB (Homo sapiens, UniProt P09619); test: Kinase inhibition assay (33P transfer), PDGFRB; details: read-out: PDGFRB-1
T9 construct: Kinases are expressed as either kinase domains or full length constructs; made in house
T9 sequence (P09619 33-1106, species assumed): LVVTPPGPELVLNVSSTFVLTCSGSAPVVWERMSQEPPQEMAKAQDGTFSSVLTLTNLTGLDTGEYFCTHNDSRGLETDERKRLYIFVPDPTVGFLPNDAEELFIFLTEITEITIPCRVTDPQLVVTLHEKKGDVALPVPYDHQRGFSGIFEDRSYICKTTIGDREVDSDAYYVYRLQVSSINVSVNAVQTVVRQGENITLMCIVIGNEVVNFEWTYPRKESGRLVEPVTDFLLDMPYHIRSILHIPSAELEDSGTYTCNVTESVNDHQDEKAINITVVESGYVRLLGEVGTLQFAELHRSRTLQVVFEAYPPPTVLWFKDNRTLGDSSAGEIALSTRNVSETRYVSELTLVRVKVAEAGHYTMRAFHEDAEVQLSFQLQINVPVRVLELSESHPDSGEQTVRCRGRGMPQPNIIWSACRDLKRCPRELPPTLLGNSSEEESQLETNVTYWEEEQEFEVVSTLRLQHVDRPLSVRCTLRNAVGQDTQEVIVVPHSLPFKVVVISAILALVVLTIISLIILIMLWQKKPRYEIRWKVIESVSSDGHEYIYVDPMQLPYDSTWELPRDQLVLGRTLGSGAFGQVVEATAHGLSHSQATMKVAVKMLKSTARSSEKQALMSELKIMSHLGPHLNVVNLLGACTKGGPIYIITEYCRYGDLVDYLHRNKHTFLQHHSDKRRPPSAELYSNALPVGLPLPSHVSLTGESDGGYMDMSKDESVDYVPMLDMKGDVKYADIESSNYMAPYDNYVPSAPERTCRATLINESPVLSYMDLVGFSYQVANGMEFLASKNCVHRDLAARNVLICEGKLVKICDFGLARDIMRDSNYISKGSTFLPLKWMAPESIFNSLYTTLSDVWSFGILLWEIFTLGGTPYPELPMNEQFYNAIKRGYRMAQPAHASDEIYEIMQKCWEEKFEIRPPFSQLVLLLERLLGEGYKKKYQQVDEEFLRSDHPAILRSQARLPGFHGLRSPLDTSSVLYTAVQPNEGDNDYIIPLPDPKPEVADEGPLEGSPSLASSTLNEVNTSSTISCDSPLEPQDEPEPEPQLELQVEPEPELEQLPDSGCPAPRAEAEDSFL

[10] = biological target: T10, FGFR1 (Homo sapiens, UniProt P11362); test: Kinase inhibition assay (33P transfer), FGFR1; details: read-out: FGFR1-1
T10 construct: Kinases are expressed as either kinase domains or full length constructs; made in house
T10 sequence (P11362 22-822, species assumed): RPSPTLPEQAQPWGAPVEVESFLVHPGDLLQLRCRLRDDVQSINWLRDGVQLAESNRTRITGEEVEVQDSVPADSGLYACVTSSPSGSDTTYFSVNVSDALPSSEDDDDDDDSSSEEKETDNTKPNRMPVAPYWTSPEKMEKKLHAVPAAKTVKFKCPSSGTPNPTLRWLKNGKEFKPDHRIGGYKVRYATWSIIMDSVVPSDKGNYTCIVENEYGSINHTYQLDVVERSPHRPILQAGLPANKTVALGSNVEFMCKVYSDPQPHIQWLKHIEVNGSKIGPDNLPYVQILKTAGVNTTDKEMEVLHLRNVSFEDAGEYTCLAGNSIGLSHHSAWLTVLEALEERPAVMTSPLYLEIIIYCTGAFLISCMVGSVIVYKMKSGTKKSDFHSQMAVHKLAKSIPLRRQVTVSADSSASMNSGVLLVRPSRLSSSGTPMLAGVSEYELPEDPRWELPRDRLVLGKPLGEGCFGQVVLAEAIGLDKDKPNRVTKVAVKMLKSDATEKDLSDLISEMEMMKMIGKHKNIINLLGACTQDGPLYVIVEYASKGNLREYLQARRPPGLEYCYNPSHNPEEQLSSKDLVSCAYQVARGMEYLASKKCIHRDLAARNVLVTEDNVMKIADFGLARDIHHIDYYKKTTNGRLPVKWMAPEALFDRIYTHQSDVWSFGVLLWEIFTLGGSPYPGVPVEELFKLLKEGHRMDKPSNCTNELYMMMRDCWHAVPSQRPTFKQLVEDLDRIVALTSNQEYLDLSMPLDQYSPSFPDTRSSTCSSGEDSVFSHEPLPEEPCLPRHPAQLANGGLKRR

[11] = biological target: T11, AKT (Homo sapiens, UniProt Q9Y243); test: Kinase inhibition assay (33P transfer), AKT; details: Table 2, kinase inhibition class; read-out: AKT3-1
T11 construct: Kinases are expressed as either kinase domains or full length constructs; made in house
How it was run: (§2)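 Radiometric readout: 33P incorporated into surface-bound poly(Glu,Tyr) 4:1 or poly(Arg,Ser) 3:1 is counted by liquid scintillation after a 0.5% phosphoric acid wash. Enzymes were GST or polyHis fusions (kinase domain or full length) from E. coli or High Five insect cells.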

[12] = biological target: T12, ErbB2 (Homo sapiens, UniProt P04626); test: Kinase inhibition assay (33P transfer), ErbB2; details: read-out: ErbB2-2
T12 construct: Kinases are expressed as either kinase domains or full length constructs; made in house
How it was run: as §1

[13] = biological target: T13, Tek (Homo sapiens, UniProt Q02763); test: Kinase inhibition assay (33P transfer), Tek; details: read-out: Tek-1
T13 construct: Kinases are expressed as either kinase domains or full length constructs; made in house
How it was run: as §1

[14] = biological target: T14, Kdr (Homo sapiens, UniProt P35968); test: Kinase inhibition assay (33P transfer), Kdr; details: read-out: KDR-1
T14 construct: Kinases are expressed as either kinase domains or full length constructs; made in house
How it was run: as §2

[15] = biological target: T15, Lck (Homo sapiens, UniProt P06239); test: Kinase inhibition assay (33P transfer), Lck; details: read-out: Lck-1
T15 construct: Kinases are expressed as either kinase domains or full length constructs; made in house
How it was run: as §2

[16] = biological target: T16, EGFR (Homo sapiens, UniProt P00533); test: Kinase inhibition assay (33P transfer), EGFR; details: Table 2, kinase inhibition class; read-out: EGFR-1
T16 construct: Kinases are expressed as either kinase domains or full length constructs; made in house
How it was run: as §1

[17] = biological target: T17, Flt-1 (Homo sapiens, UniProt P17948); test: Kinase inhibition assay (33P transfer), Flt-1
T17 construct: Kinases are expressed as either kinase domains or full length constructs; made in house
T17 sequence (P17948 27-1338, species assumed): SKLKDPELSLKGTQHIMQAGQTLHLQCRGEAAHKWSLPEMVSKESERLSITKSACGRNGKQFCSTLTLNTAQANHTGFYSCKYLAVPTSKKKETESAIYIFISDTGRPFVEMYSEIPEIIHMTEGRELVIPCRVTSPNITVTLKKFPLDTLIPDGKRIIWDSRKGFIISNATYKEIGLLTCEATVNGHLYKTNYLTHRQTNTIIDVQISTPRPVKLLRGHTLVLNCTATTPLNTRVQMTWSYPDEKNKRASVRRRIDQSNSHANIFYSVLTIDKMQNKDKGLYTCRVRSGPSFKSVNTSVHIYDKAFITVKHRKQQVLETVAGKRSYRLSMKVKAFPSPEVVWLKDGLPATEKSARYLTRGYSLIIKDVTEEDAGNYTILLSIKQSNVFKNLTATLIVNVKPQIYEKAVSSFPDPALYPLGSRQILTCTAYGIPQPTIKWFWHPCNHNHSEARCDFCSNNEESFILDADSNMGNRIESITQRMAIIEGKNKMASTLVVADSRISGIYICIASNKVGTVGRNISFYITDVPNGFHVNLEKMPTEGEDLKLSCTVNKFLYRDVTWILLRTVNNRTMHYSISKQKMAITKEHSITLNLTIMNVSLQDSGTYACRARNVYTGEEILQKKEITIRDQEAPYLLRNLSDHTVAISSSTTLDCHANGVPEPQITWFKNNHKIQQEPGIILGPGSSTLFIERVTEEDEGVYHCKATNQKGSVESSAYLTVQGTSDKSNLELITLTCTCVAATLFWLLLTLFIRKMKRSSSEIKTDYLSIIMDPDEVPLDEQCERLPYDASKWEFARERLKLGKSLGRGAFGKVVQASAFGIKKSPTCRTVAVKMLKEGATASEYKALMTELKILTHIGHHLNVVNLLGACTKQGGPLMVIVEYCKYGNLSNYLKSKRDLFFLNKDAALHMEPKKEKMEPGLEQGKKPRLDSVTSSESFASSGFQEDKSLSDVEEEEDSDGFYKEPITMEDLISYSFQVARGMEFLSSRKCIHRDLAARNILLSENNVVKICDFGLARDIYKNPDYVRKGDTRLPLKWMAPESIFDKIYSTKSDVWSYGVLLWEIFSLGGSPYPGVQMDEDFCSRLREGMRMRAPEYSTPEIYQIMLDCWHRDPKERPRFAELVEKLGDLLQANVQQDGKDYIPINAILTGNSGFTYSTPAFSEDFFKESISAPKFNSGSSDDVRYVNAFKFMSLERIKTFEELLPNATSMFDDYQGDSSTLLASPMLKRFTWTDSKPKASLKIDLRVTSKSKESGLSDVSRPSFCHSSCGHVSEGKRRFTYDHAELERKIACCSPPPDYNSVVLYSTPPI
How it was run: as §1

[18] = biological target: T18, Zap-70 (Homo sapiens, UniProt P43403); test: Kinase inhibition assay (33P transfer), Zap-70; details: read-out: Zap-1
T18 construct: Kinases are expressed as either kinase domains or full length constructs; made in house
T18 sequence (P43403 1-619): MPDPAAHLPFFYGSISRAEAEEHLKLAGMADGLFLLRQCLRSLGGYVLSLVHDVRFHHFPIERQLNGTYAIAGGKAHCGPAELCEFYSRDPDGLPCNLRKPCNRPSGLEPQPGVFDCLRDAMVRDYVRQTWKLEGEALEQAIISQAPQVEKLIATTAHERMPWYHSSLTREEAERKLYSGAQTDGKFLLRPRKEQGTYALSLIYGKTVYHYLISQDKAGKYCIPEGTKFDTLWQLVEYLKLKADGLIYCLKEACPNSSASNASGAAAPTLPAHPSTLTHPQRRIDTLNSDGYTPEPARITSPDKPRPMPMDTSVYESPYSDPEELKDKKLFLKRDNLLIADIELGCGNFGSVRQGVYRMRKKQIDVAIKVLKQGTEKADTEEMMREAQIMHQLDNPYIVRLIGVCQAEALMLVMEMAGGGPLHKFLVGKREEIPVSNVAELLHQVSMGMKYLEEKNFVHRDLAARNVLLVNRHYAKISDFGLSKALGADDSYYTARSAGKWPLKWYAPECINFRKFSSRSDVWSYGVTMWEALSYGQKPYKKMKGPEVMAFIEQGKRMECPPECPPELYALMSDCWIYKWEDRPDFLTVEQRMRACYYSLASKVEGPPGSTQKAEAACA
How it was run: as §2

[19] = biological target: T19, Hck-1 (Homo sapiens, UniProt P08631); test: Kinase inhibition assay (33P transfer), Hck; details: Table 6, Hck-1 kinase inhibition class
T19 construct: Kinases are expressed as either kinase domains or full length constructs; made in house

T1 sequence (Q15303 26-1308, species assumed): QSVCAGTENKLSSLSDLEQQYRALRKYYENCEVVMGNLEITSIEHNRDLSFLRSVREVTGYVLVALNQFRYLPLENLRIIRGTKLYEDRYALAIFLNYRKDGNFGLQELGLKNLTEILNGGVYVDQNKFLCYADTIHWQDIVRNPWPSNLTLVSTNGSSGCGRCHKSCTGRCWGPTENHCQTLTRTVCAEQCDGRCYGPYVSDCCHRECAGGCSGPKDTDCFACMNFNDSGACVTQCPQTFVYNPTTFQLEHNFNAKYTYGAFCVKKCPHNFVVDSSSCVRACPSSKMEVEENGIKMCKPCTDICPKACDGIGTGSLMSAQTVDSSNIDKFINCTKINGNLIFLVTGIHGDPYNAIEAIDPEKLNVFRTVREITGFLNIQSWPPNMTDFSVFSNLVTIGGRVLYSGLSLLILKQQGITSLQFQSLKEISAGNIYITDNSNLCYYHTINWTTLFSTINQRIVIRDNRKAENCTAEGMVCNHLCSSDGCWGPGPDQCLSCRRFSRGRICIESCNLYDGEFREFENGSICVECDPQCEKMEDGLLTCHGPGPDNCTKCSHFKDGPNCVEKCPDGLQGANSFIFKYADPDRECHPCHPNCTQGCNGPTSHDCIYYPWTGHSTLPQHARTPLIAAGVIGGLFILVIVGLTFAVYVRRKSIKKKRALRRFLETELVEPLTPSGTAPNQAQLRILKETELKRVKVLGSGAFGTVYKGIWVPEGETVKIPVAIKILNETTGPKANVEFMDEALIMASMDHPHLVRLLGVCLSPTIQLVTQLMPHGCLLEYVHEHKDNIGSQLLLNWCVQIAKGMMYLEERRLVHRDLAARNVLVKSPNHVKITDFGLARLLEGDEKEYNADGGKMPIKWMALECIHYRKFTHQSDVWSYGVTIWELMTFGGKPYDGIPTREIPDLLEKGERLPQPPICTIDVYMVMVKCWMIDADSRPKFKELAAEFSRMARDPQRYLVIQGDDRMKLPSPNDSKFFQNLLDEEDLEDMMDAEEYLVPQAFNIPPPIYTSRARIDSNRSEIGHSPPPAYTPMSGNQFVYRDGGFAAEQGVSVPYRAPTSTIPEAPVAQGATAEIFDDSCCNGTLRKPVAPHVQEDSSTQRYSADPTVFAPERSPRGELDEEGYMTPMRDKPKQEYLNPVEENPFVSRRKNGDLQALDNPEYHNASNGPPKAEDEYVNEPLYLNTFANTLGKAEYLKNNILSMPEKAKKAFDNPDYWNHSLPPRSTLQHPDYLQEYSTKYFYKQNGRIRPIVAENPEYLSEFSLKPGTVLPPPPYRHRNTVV

Compound | IC50 [1] [µM] | IC50 [2] [µM] | IC50 [3] [µM] | IC50 [4] [µM] | IC50 [5] [µM] | IC50 [6] [µM] | IC50 [7] [µM] | IC50 [8] [µM] | IC50 [9] [µM] | IC50 [10] [µM] | IC50 [11] [µM] | IC50 [12] [µM] | IC50 [13] [µM] | IC50 [14] [µM] | IC50 [15] [µM] | IC50 [16] [µM] | IC50 [17] [µM] | IC50 [18] [µM] | IC50 [19] [µM]
COc1cc(Nc2ncnc(N3c4ccccc4CCC3C)n2)cc(OC)c1OC (stereo not shown) [Compound 612] | 0.982 to 5.89 | < 0.982 | 0.982 to 5.89 | 0.982 to 5.89 | 0.982 to 5.89 | 5.89 to 8.59 | 0.982 to 5.89 | 0.982 to 5.89 | 0.982 to 5.89 | < 0.982 | > 11 | 0.982 to 5.89 | 0.982 to 5.89 | < 0.982 | < 0.982 | 0.982 to 5.89 | < 0.982 | 8.59 to 11 | 8.59 to 11
COc1cc(Nc2ncnc(-n3c(NCCc4ccccn4)nc4ccccc43)n2)cc(OC)c1OC [Compound 510] | > 9.03 | > 9.03 | 0.802 to 4.81 | > 9.03 | > 9.03 | > 9.03 | 0.802 to 4.81 | > 9.03 | 4.81 to 7.02 | 0.802 to 4.81 | > 9.03 | > 9.03 | > 9.03 | < 0.802 | 0.802 to 4.81 | > 9.03 | 0.802 to 4.81 | > 9.03 | > 9.03
NC(=O)c1ccc(Nc2ncnc(-c3cccnc3NCc3ccccc3)n2)cc1 [Compound 1082] | 1.01 to 6.04 | 8.81 to 11.3 | > 11.3 | 6.04 to 8.81 | > 11.3 | 6.04 to 8.81 | < 1.01 | > 11.3 | 1.01 to 6.04 | > 11.3 | > 11.3 | > 11.3 | 1.01 to 6.04 | < 1.01 | 1.01 to 6.04 | 1.01 to 6.04 | > 11.3 | 1.01 to 6.04 | > 11.3
COc1cc(Nc2ncnc(-c3cccnc3NCc3ccccc3F)n2)cc(OC)c1OC [Compound 1087] | > 9.73 | > 9.73 | > 9.73 | > 9.73 | > 9.73 | > 9.73 | 0.865 to 5.19 | > 9.73 | 5.19 to 7.57 | 7.57 to 9.73 | > 9.73 | > 9.73 | > 9.73 | 0.865 to 5.19 | 5.19 to 7.57 | > 9.73 | > 9.73 | > 9.73 | > 9.73
COc1cc(Nc2ncnc(-n3c(NCc4ccccn4)nc4ccccc43)n2)cc(OC)c1OCCN1CCOCC1 [Compound 519] | > 7.71 | > 7.71 | > 7.71 | 6 to 7.71 | > 7.71 | 0.685 to 4.11 | < 0.685 | > 7.71 | < 0.685 | < 0.685 | > 7.71 | > 7.71 | > 7.71 | < 0.685 | 0.685 to 4.11 | > 7.71 | 0.685 to 4.11 | > 7.71 | > 7.71
COc1cc(Nc2ncnc(-c3c(O)[nH]c4ccc(Cl)cc34)n2)cc(OC)c1OC [Compound 517] | > 10.5 | 8.18 to 10.5 | 8.18 to 10.5 | 8.18 to 10.5 | > 10.5 | 0.935 to 5.61 | 5.61 to 8.18 | 5.61 to 8.18 | 0.935 to 5.61 | 0.935 to 5.61 | > 10.5 | 5.61 to 8.18 | 5.61 to 8.18 | < 0.935 | 0.935 to 5.61 | 5.61 to 8.18 | < 0.935 | > 10.5 | > 10.5
COc1cc(Nc2ncnc(Nc3cccc4ccccc34)n2)cc(OC)c1OCCN1CCOCC1 [Compound 1041] | 0.796 to 4.78 | > 8.95 | 0.796 to 4.78 | < 0.796 | < 0.796 | 0.796 to 4.78 | 0.796 to 4.78 | 0.796 to 4.78 | < 0.796 | 0.796 to 4.78 | > 8.95 | < 0.796 | 0.796 to 4.78 | < 0.796 | < 0.796 | < 0.796 | 4.78 to 6.96 | > 8.95 | 0.796 to 4.78
